Results from patent US12551482B2, “Aurora kinase inhibitors” (The Regents of the University of California, priority 2013, dated 2026).

Key:
A253 = assay: Cancer cell line profiling, Genomics of Drug Sensitivity Project; details: Homo sapiens, A253, read-out: CD532 EC50 (uM)
MZ2-MEL. = assay: as above; details: read-out: CD532 EC50 (uM)
HSC-2 = assay: as above; details: Homo sapiens, HSC-2, read-out: CD532 EC50 (uM)
SNU-5 = assay: as above; details: Homo sapiens, SNU-5, read-out: CD532 EC50 (uM)
NH-12 = assay: as above; details: read-out: CD532 EC50 (uM)
HO-1-N-1 = assay: as above; details: read-out: CD532 EC50 (uM)
DOK = assay: as above; details: read-out: CD532 EC50 (uM)
MYCN = MYCN protein by immunoblot in SHEP cells expressing MYCN; format: cell-based
Experimental: Neuroblastoma tumor cell lines were obtained from the University of California San Francisco Cell Culture Facility (Kelly, SK-N-BE2, and SH-EP). SMS-KCN, SHEP MYCN^wt and MYCN^T58A/S62A cells were obtained. All cells were grown in RPMI with 10% FBS. Neuroblastoma cells were harvested and lysed with Cell Signaling Lysis buffer+1% SDS, sonicated and supernatants boiled in LDS sample buffer (Invitrogen). Western blots were performed as described previously (Chanthery et al., 2012), with primary antibodies to MYCN (ab24193, Abcam), Histone H3, P-Histone H3 (S10), Aurora A (Cell signaling), and GAPDH (Millipore). Western blot quantitation performed with ImageJ software.
MYCN is believed to be sequentially phosphorylated at S62/T58 before it is targeted for degradation by ubiquitination, and only phosphorylated, ubiquitinated MYCN is protected from degradation by Aurora A (Gustafson and Weiss, 2010; Otto et al., 2009).

NCI-N87 = assay: Cancer cell line profiling, Genomics of Drug Sensitivity Project; details: Homo sapiens, NCI-N87, read-out: CD532 EC50 (uM)
c-MYC = c-MYC protein by immunoblot in c-MYC expressing cancer cell lines; format: cell-based
OVMIU = assay: Cancer cell line profiling, Genomics of Drug Sensitivity Project; details: read-out: CD532 EC50 (uM)
LS-123 = assay: as above; details: Homo sapiens, LS-123, read-out: CD532 EC50 (uM)
M-14 = assay: as above; details: Homo sapiens, M14, read-out: CD532 EC50 (uM)
SK-MEL-3 = assay: as above; details: Homo sapiens, SK-MEL3, read-out: CD532 EC50 (uM)
MKN1 = assay: as above; details: Homo sapiens, MKN-1, read-out: CD532 EC50 (uM)
IGR-1 = assay: as above; details: Homo sapiens, IGR-1, read-out: CD532 EC50 (uM)
NB17 = assay: as above; details: read-out: CD532 EC50 (uM)
ACN = assay: as above; details: read-out: CD532 EC50 (uM)
HLE = assay: as above; details: Homo sapiens, read-out: CD532 EC50 (uM)
BICR 78 = assay: as above; details: read-out: CD532 EC50 (uM)
5637 = assay: as above; details: read-out: CD532 EC50 (uM)
[1] = Pharmacokinetics of CD532 in mice; format: in vivo; details: mouse, serum, ip, 20 mg/kg, intraperitoneal injection
WM35 = assay: Cancer cell line profiling, Genomics of Drug Sensitivity Project; details: WM35, read-out: CD532 EC50 (uM)
HN = assay: as above; format: cell-based; details: read-out: CD532 EC50 (uM), Head & Neck
SAS = assay: as above; details: read-out: CD532 EC50 (uM)
23132/87 = assay: as above; details: read-out: CD532 EC50 (uM)
WM-115 = assay: as above; details: Homo sapiens, WM-115, read-out: CD532 EC50 (uM)
TT = assay: as above; format: cell-based; details: Homo sapiens, read-out: CD532 EC50 (uM), Thyroid
Ca9-22 = assay: as above; details: Homo sapiens, Ca9-22, read-out: CD532 EC50 (uM)
NB13 = assay: as above; details: read-out: CD532 EC50 (uM)

## O=C(Nc1ccc(Nc2nccc(Nc3cc(C4CCCC4)[nH]n3)n2)cc1)Nc1cccc(C(F)(F)F)c1 [CD532, 1-(4-((4-((5-cyclopentyl-1H-pyrazol-3-yl)amino)pyrimidin-2-yl)amino)phenyl)-3-(3-(trifluoromethyl)phenyl)urea]
A253
  EC50: 24.5 µM
MZ2-MEL.
  EC50: 0.434 µM
HSC-2
  EC50: 2.15 µM
SNU-5
  EC50: 2.51 µM
NH-12
  EC50: 0.37 µM
HO-1-N-1
  EC50: 1.67 µM
DOK
  EC50: 0.512 µM
MYCN; SHEP cells expressing MYCNWT, 24 hrs, increasing concentrations (FIG. 12C)
  wild-type MYCN protein: dose-dependent decrease in wild-type MYCN protein
MYCN; SHEP cells expressing non-phosphorylatable MYCNT58A/S62A, 24 hrs (FIG. 12C)
  MYCNT58A/S62A protein: partially protected from degradation
NCI-N87
  EC50: 10.9 µM
c-MYC; RKO colon cancer cell line
  c-MYC protein: effects loss of c-MYC protein
c-MYC; SUM142 breast cancer cell line
  c-MYC protein: effects loss of c-MYC protein
c-MYC; SUM149 (ER−/PR−) breast cancer cell line
  c-Myc protein: loss of c-Myc
c-MYC; c-MYC-translocated ML-60 leukemia cell line
  c-MYC protein: effects loss of c-MYC protein
OVMIU
  EC50: 0.869 µM
LS-123
  EC50: 0.861 µM
M-14
  EC50: 0.972 µM
SK-MEL-3
  EC50: 0.567 µM
MKN1
  EC50: 0.86 µM
IGR-1
  EC50: 0.27 µM
NB17
  EC50: 0.282 µM
ACN
  EC50: 0.884 µM
HLE
  EC50: 0.567 µM
BICR 78
  EC50: 12.2 µM
5637
  EC50: 0.49 µM
[1]
  half-life: ~1.5 h
[1]; read-out: AUC0-24
  AUC(0-t): 27 µM·h
WM35
  EC50: 0.367 µM
HN
  EC50: 1.63 µM
SAS
  EC50: 1.46 µM
23132/87
  EC50: 0.471 µM
WM-115
  EC50: 0.412 µM
TT
  EC50: 0.972 µM
Ca9-22
  EC50: 0.705 µM
NB13
  EC50: 1.02 µM
